Laboratory results taken from US9434686B2, “Deacetylase inhibitors and uses thereof” (President and Fellows of Harvard College, priority 2008, dated 2016).
“And” between values parts separate entries of the source, which are not always exact repeats. Equal values may be shown once. Read-outs that look alike come from different tables or passages of the source.

Experiments:
[1] = Pharmacokinetics of WT-161 in CD-1 mice after intravenous administration (plasma, LC-MS/MS); format: in vivo
Description: WT-III-161 (Wt: 458.55 for free base) was dissolved in 25% DMSO, 25% Cremophor EL, and 50% saline to yield final concentration at 2 mg/mL for intravenous administration (pH=6-7). The solution was clear and light yellow, and the concentration of WT-III-161 in it was confirmed by HPLC method with an accuracy of 116.92% (Table I).
Study design, animal selection, handling and treatment were in accordance with the Shanghai Medicilon Inc. study protocol (Shanghai Medicilon Inc Study No. BRD0701). Male CD0-1 mice (body weight 23 g to 27 g) were used in this study. Before the pharmacokinetic studies, animals were randomly assigned to the treatment groups (3 animals per timepoint). Ten additional mice were used to collect plasma for calibration curves.
[…] All the samples and the dose formulation were stored at −20° C. until bioanalysis or transportation to sponsor.
The concentrations of WT-161 in plasma were determined using a high pressure liquid chromatography/mass spectrometry (LC-MS/MS) method.
The LC system comprised an Aligent liquid chromatograph equipped with an isocratic pump (1100 series), an autosampler (1100 series) and a degasser (1100 series). Mass spectrometric analysis was performed using an API3000 (triple quadrupole) instrument from AB Inc (Canada) with an ESI interface. The data acquisition and control system were created using Analyst 1.4 software from ABI Inc. Acetonitrile and methanol were HPLC grade. All other solvents and chemicals were analytical grade or better.
Pharmacokinetic software DAS 2.0 (Gaosi Data Analysis Inc., Wuhn, China) was used.
Chromatographic conditions: ColumnL Synergi Fusion-RP, 4 μm (150 mm×2.0 mm); Mobile phase: 0.1% formic acid:methanol:acetonitrile (5:90:5); Elution rate: 350 μL/min; Column temperature: 25° C.; Injection volume: 2 μL.
Scan type: positive MRM; Ion Source: Turbo spray; Ionization mode: ESI; Nebulize gas: 8 L/min; Curtain gas: 8 L/min; Collision gas: 4 L/min; Ionspray voltage: 5000 V; Temperature: 500° C.
Plasma samples (0.1 mL) were transferred to Eppendorff tubes, then 20 μL of methanol, 500 μL IS solutions (50 ng/mL) were added to it. After vortexing for 1 minute and centrifuging for 5 min at 15,000 rpm, 2 μL of supernatant was injected onto the LC-MS/MS.
The concentration in plasma below the limit of quantitation (LOQ=5 ng/mL) were designated as zero. The pharmacokinetic data analysis was performed using noncompartmental analysis modules in DAS 2.0.

[2] = biological target: T1, HDAC6 (Homo sapiens, UniProt Q9UBN7); assay: High content acetylation assay (AcTubulin vs AcHistone) in cultured cells; format: cell-based; conditions: dose-range, TDAC activity as surrogate for HDAC6 inhibition
T1 construct: endogenous in cells
T1 sequence (Q9UBN7 1-1215): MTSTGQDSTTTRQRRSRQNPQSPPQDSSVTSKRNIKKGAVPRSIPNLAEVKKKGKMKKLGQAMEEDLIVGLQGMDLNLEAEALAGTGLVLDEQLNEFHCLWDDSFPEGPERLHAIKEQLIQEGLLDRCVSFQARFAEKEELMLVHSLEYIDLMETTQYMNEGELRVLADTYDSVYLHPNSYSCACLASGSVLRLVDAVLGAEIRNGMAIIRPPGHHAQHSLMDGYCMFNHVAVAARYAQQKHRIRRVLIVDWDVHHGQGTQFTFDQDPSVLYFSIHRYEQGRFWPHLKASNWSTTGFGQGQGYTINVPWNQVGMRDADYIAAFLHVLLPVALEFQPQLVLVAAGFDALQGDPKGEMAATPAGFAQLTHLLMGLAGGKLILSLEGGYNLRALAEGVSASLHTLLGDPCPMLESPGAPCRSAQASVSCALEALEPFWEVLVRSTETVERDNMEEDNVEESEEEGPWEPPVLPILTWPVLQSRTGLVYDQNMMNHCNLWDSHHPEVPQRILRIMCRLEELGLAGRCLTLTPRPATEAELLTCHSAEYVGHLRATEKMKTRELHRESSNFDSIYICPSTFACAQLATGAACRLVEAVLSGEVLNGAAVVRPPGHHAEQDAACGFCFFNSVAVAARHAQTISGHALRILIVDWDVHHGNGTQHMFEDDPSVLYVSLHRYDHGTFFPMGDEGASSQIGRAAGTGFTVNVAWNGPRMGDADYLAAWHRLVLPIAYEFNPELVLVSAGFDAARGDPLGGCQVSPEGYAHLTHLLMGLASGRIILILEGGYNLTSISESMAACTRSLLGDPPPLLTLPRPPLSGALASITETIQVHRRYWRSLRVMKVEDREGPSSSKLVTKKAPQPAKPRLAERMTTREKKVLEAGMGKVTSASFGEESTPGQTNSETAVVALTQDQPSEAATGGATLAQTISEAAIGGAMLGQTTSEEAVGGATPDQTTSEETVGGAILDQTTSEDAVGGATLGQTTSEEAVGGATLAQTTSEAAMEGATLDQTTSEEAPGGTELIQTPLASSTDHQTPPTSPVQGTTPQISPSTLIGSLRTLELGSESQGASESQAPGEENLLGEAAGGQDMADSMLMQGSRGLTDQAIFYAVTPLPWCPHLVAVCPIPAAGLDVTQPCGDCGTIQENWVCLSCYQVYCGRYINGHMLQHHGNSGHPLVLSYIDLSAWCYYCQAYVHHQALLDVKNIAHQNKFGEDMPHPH
Description: FIG. 2. High-throughput, high-content, quantitative detection method for identifying HDAC inhibitors. Cells are seeded in 384-well plates (2,000 cells/well) and treated with test compound, fixed, and then stained with Hoechst (nuclei), primary anti-AcTubulin monoclonal antibody and anti-AcHistone polyclonal antibody, then with compatible fluorophore-conjugated secondary antibodies. After automated image acquisition a custom analysis script identifies and masks cells, then derives quantitative fluorescence data from FITC (AcTubulin) and rhodamine (AcHistone) channels (MetaXPress; Molecular Devices).
FIG. 3. WT-161 Induction of AcTubulin (Red) and AcHistone (Blue) by HCS. As described in FIG. 2, the high content acetylation assay was employed to determine the comparative induction of acetylated histones versus acetylated tubulin across a dose-range of WT-161.
FIG. 4. […] Dose-response data from FIG. 3 have been used to generate EC50 values of cellular histone and tubulin acetylation effects of WT-161. […] HDAC activity is used to indicate biological activity of proteins mediating histone deacetylation, as this is a cellular assay measuring global effects on acetylation. TDAC activity is a surrogate measurement for HDAC6 inhibition in cultured cells.

[3] = biological target: T1, HDAC6; assay: HDAC biochemical (homogeneous) assay, inhibitory constants
Description: FIG. 5. HDAC Biochemical Assay Schema. 7-amino-4-methylcoumarin (7AMC) is linked by an amide bond to acetylated lysine in the context of an isoform-selective substate. Pictured here is a derived substrate for HDACs 1, 2, 3, and 6. HDAC hydrolyzes acetylated lysine, which is then a substrate for rapid trypsin digestion releasing 7AMC (shown in green) which is detected in real time by a fluorescence plate reader. Linear data captured after a pre-incubation phase (30 minutes) provides a kinetic assessment of deacetylase activity.
FIG. 6. […] Robust assay for HDACs 1, 2, 3, 5, 6, and 8 have been established.

[4] = test system: human multiple myeloma cells; assay: Cell proliferation (Cell TiterGlo) synergy of HDAC inhibitor with bortezomib; format: cell-based; conditions: two cultures of human multiple myeloma cells, bortezomib 0, 2.5 nM, 5.0 nM
Description: FIG. 7. […] Synergistic effects on cell proliferation were determined by varying concentrations of each HDAC inhibitor in the presence of varied concentrations of the proteasome inhibitor, bortezomib. Two cultures of human multiple myeloma cells were used for this study. Data presented are the IC50 data for the HDAC inhibitor studied (first column) in the presence of increasing concentrations of bortezomib (0, 2.5 nM, or 5.0 nM). The measurement of cell proliferation used is the Cell TiterGlo assay (Promega), which uses bioluminescence to report on ATP content in cultured cells.

[5] = male, mouse, CD-1 mice, IV 5 mg/kg, plasma

O=C(CCCCCCC(=O)N/N=C/c1ccc(N(c2ccccc2)c2ccccc2)cc1)NO [WT-161]
Concentration in plasma, individual mice 1-3 ([1]; 0.033 hr post-dose, IV 5 mg/kg, 5 mg/kg): 13606.91 ng/mL and 27492.70 ng/mL and 14890.74 ng/mL
Concentration in plasma, individual mice 1-3 ([1]; 0.083 hr post-dose, IV 5 mg/kg, 5 mg/kg): 6082.36 ng/mL and 8591.87 ng/mL
Concentration in plasma, individual mice 1-3 ([1]; 0.25 hr post-dose, IV 5 mg/kg, 5 mg/kg): 1762.06 ng/mL and 1336.63 ng/mL
Concentration in plasma, individual mice 1-3 ([1]; 0.5 hr post-dose, IV 5 mg/kg, 5 mg/kg): 780.44 ng/mL and 1152.36 ng/mL
Concentration in plasma, individual mice 1-3 ([1]; 1 hr post-dose, IV 5 mg/kg, 5 mg/kg): 122.63 ng/mL and 57.74 ng/mL and 263.97 ng/mL
Concentration in plasma, individual mice 1-3 ([1]; 2 hr post-dose, IV 5 mg/kg, 5 mg/kg): 87.92 ng/mL and 114.00 ng/mL
Concentration in plasma, individual mice 1-3 ([1]; 3 hr post-dose, IV 5 mg/kg, 5 mg/kg): 25.12 ng/mL and 9.38 ng/mL and 14.37 ng/mL
Concentration in plasma, individual mice 1-3 ([1]; 4 hr post-dose, IV 5 mg/kg, 5 mg/kg): 74.08 ng/mL and 20.79 ng/mL and 7.37 ng/mL
Concentration in plasma, individual mice 1-3 ([1]; 6 hr post-dose, IV 5 mg/kg, LOQ 5 ng/mL, 5 mg/kg): BLQ and 6.57 ng/mL
Concentration in plasma, individual mice 1-3 ([1]; 8 hr post-dose, IV 5 mg/kg, LOQ 5 ng/mL): BLQ
Concentration in plasma, individual mice 1-3 ([1]; 24 hr post-dose, IV 5 mg/kg, LOQ 5 ng/mL): BLQ
Systemic clearance as percent of mouse hepatic blood flow (5.40 L/hr/kg) ([1]; CD-1 mice, IV bolus 5 mg/kg): 30.37%
concentration at 0.033 hr ([1]; male, CD-1, mouse, plasma, iv, 5 mg/kg, 0.033 hr post-dose, IV 5 mg/kg): 18700 ng/mL
concentration at 0.083 hr ([1]; male, CD-1, mouse, plasma, iv, 5 mg/kg, 0.083 hr post-dose, IV 5 mg/kg, read-out: Concentration in plasma, Mean): 8000 ng/mL
concentration at 0.083 hr ([1]; male, CD-1, mouse, plasma, iv, 5 mg/kg, 0.083 hr post-dose, IV 5 mg/kg, read-out: Concentration in plasma, individual mice 1-3): 9330 ng/mL
concentration at 0.25 hr ([1]; male, CD-1, mouse, plasma, iv, 5 mg/kg, 0.25 hr post-dose, IV 5 mg/kg, read-out: Concentration in plasma, Mean): 1760 ng/mL
concentration at 0.25 hr ([1]; male, CD-1, mouse, plasma, iv, 5 mg/kg, 0.25 hr post-dose, IV 5 mg/kg, read-out: Concentration in plasma, individual mice 1-3): 2190 ng/mL
concentration at 0.5 hr ([1]; male, CD-1, mouse, plasma, iv, 5 mg/kg, 0.5 hr post-dose, IV 5 mg/kg, read-out: Concentration in plasma, Mean): 956 ng/mL
concentration at 0.5 hr ([1]; male, CD-1, mouse, plasma, iv, 5 mg/kg, 0.5 hr post-dose, IV 5 mg/kg, read-out: Concentration in plasma, individual mice 1-3): 934 ng/mL
concentration at 1 hr ([1]; male, CD-1, mouse, plasma, iv, 5 mg/kg, 1 hr post-dose, IV 5 mg/kg): 148 ng/mL
concentration at 2 hr ([1]; male, CD-1, mouse, plasma, iv, 5 mg/kg, 2 hr post-dose, IV 5 mg/kg, read-out: Concentration in plasma, Mean): 95.2 ng/mL
concentration at 2 hr ([1]; male, CD-1, mouse, plasma, iv, 5 mg/kg, 2 hr post-dose, IV 5 mg/kg, read-out: Concentration in plasma, individual mice 1-3): 83.6 ng/mL
concentration at 3 hr ([1]; male, CD-1, mouse, plasma, iv, 5 mg/kg, 3 hr post-dose, IV 5 mg/kg): 16.3 ng/mL
concentration at 4 hr ([1]; male, CD-1, mouse, plasma, iv, 5 mg/kg, 4 hr post-dose, IV 5 mg/kg): 34.1 ng/mL
concentration at 6 hr ([1]; male, CD-1, mouse, plasma, iv, 5 mg/kg, 6 hr post-dose, IV 5 mg/kg, BLQ designated as zero, read-out: Concentration in plasma, Mean): 4.15 ng/mL
concentration at 6 hr ([1]; male, CD-1, mouse, plasma, iv, 5 mg/kg, 6 hr post-dose, IV 5 mg/kg, LOQ 5 ng/mL, read-out: Concentration in plasma, individual mice 1-3): 5.87 ng/mL
Cmax ([1]; male, CD-1, mouse, plasma, iv, 5 mg/kg, CD-1 mice, IV 5 mg/kg, read-out: Cmax): 18700 ng/mL
Cmax ([1]; male, CD-1, mouse, plasma, iv, 5 mg/kg, IV, nominal dose 5 mg/kg, read-out: Cmax (at 2 minutes after dosing)): 18700 ng/mL
Tmax ([1]; male, mouse, plasma, CD-1 mice, IV 5 mg/kg): 1.8 min
clearance ([1]; male, mouse, plasma, CD-1 mice, IV 5 mg/kg, read-out: CLZ (systemic clearance) (converted)): 27.3 mL/min/kg
MRT inf ([1]; male, mouse, plasma, CD-1 mice, IV 5 mg/kg, read-out: MRT(0-∞)): 19.8 min
half-life ([1]; male, mouse, plasma, CD-1 mice, IV 5 mg/kg, read-out: T1/2z (half-life) (converted)): 84.6 min
Vd ([1]; male, mouse, plasma, CD-1 mice, IV 5 mg/kg, read-out: VZ (volume of distribution at terminal phase)): 3.33 L/kg
AUC(0-inf) [1, 5]: 3050 ng·h/mL
AUC(0-t) [1, 5]: 3020 ng·h/mL
Tissue distribution ([1]; mice, IV 5 mg/kg): distributes well in tissues
Volume of distribution as fold of total body water (0.73 L/kg) ([1]; mice, IV 5 mg/kg): 4.56 fold
Comparative induction of acetylated tubulin versus acetylated histones (cellular selectivity) [2]: Selective Inhibition of HDAC6
Inhibitory constant (Ki) for HDAC6, in words [3]: Potent inhibition of HDAC6
Selectivity among HDACs 1, 2, 3, 5, 6, 8, in words [3]: Selective Inhibition of HDAC6
Synergy with bortezomib on cell proliferation [4]: most pronounced synergy

O=C(CCCCCCC(=O)Nc1ccc([C@H]2O[C@@H](CSc3nc(-c4ccccc4)c(-c4ccccc4)o3)C[C@@H](c3ccc(CO)cc3)O2)cc1)NO [tubacin, reference compound]
Synergy with bortezomib on cell proliferation [4]: most pronounced synergy
